# Starred links: 1 amine or outer side, 2 acyl side, 3 side chain; linkers in the order of their positions; H or OH if unused. Positions of bridges follow the written chain, without caps; N, C: chain ends. Non-standard residues stand in square brackets, D forms with d. Residues, ends and D or L forms follow the SMILES beside them. Chains are numbered I, II in the order given. Actinocin(9to1) = Cc1c2oc3c(C)ccc(C(=O)[*:1])c3nc-2c(C(=O)[*:2])c(N)c1=O; NMeV = CN[C@H](C(=O)O)C(C)C; Sar = CNCC(=O)O
# Columns and labels:
# [1] = test system: RNA 5′-rCUAGAUCUGA-3′ (SEQ ID NO: 23) double stranded RNA probe; test: Fluorescence quenching direct binding assay, RNA; conditions: increasing bekanomycin
# Procedure: (§1) The specific examples described in this section employ fluorescence quenching as the detection system. In these examples, because conditions are adjusted to maintain the oligonucleotides in single-stranded form in the absence of the ligand, the assay starts with the system at a high or maximum level of fluorescence, and fluorescence generally decreases, depending on binding affinity, as the ligand is added.
# In the Figure legends, RNA oligonucleotides are denoted by an “r” at the beginning of the sequence, and single stranded controls by “ss” at the end of the sequence. These single stranded sequence, are used alone in control experiments, which thus employ only an “F” strand and no complementary quenching strand. Any quenching of fluorescence that is not due to hybridization can thus be acounted for. Maximum quenching expected on complete hybridization of these oligonucleotides is 85-90%; therefore some signal remains after complete hybridization. The signal is plotted so that it is normalized to the control signal in the absence of ligand.
# Netropsin has been shown in previous studies to bind preferentially to A/T rich regions of DNA. […] Netropsin also binds well to the sequence 5′-GCGGTATTT-3′ (SEQ ID NO: 12), which is a useful “indicator” probe (as discussed below), having both C/G and A/T rich sequences. […]
# [2] = test system: A/T rich, G/C rich and mixed sequence DNA oligonucleotides; test: SPA direct binding assay, sequence preference over panel of indicator oligonucleotides; conditions: A/T rich 5′-AAAATAATAAAG, G/C rich 5′-GGCGCGG, mixed 5′-GTTGCAGATC; increasing drug
# Excerpt: This technology can be applied to studies of ligand binding as disclosed herein. […] These beads are impregnated with scintillant. The second oligonucleotide is labeled with a weak β-emitter, such as ^3H or ^33P. The radioactive second oligonucleotide is mixed with a solution of the beads under conditions at which the first and second oligonucleotides exist primarily as single strands, as described above. The signal will thus be low, as the oligonucleotides are non-hybridized. When ligand is added, the duplex form is stabilized, and the increased proximity of the radioactive isotope (e.g., ^3H, ^33P) in the second oligonucleotide causes the bead to which the first oligonucleotide is bound to scintillate. A signal thus indicates the presence of an effective binding ligand molecule; test sequences giving higher signals indicate the relative preference for different sequences.
# Indicator oligonucleotides as shown in Table 1 were used in this assay, as shown in Table II and FIGS. 4A-E. One strand of each duplex was labeled with biotin at the 5′-end, and the complementary strand was 3′-labeled with ^33P. The two complementary strands were incubated with streptavidin-coated SPA beads (Amersham, Arlington Heights, Ill.) at room temperature in a buffer containing 20 mM HEPES, pH 7.5, 0.1 mM EDTA, and 20 mM NaCl. In the absence of ligand, and under these conditions, the oligonucleotides exist in single-stranded conformation. As a result, the oligonucleotide containing the radioactive label is not in close proximity to the SPA bead, and the light given off by the beads is low, i.e., at background. As a duplex-stabilizing ligand is added, the radioactive ^33P is brought into close proximity to the SPA bead, and the light emitted from the SPA bead increases.
# [3] = test system: F/Q indicator oligonucleotide pairs (Table I); test: Fluorescence quenching direct binding assay, panel of F/Q indicator oligonucleotide pairs; conditions: concentrations up to 5 μM; tRNA added
# Procedure: as §1
# In the Figure legends, RNA oligonucleotides are denoted by an “r” at the beginning of the sequence, and single stranded controls by “ss” at the end of the sequence. These single stranded sequence, are used alone in control experiments, which thus employ only an “F” strand and no complementary quenching strand. Any quenching of fluorescence that is not due to hybridization can thus be acounted for. Maximum quenching expected on complete hybridization of these oligonucleotides is 85-90%; therefore some signal remains after complete hybridization. […]
# According to the general method described above, increasing amounts of netropsin or actinomycin, respectively, were added to mixtures of selected F/Q indicator oligonucleotide pairs, whose sequences are shown in the legends of FIGS. 1 and 3. […] The Figures show the level of fluorescence observed, relative to a control having no added drug, for each indicator pair (or single strand) as the level of added drug was increased. […]
SMILES,binding preference over all other test oligonucleotides (FIG. 3C) [1],sequence preference of binding (FIGS. 4A-E) [2],sequences bound (FIG. 3B) [3]
"NCC1OC(OC2C(N)CC(N)C(OC3OC(CO)C(O)C(N)C3O)C2O)C(N)C(O)C1O (centres unmarked) [Bekanomycin, bekanomycin]",very strong preference for the double stranded RNA probe,,
"Cc1c2oc3c(C)ccc(C(=O)N[C@@H]4C(=O)N[C@H](C(C)C)C(=O)N5CCC[C@H]5C(=O)N(C)CC(=O)N(C)[C@@H](C(C)C)C(=O)O[C@@H]4C)c3nc-2c(C(=O)N[C@@H]2C(=O)N[C@H](C(C)C)C(=O)N3CCC[C@H]3C(=O)N(C)CC(=O)N(C)[C@@H](C(C)C)C(=O)O[C@@H]2C)c(N)c1=O [actinomycin D] (I: T[dV]P[Sar][NMeV] / II: T[dV]P[Sar][NMeV]; ester I:1-I:C, II:1-II:C; linker I:N-II:N via Actinocin(9to1))",,preferred GC-rich sequences,"binding only to the C/G containing sequences (SEQ ID NOS: 6, 8, and 12)"
CC(=O)NCC(=O)O.CC(=O)NCC(=O)O.N=C(N)c1ccc(N=NNc2ccc(C(=N)N)cc2)cc1 [berenil],,no strong preference,
COC(C(=O)C(O)C(C)O)C1Cc2cc3cc(OC4CC(OC5CC(O)C(OC)C(C)O5)C(OC(C)=O)C(C)O4)c(C)c(O)c3c(O)c2C(=O)C1OC1CC(OC2CC(OC3CC(C)(O)C(OC(C)=O)C(C)O3)C(O)C(C)O2)C(O)C(C)O1 (centres unmarked) [chromomycin A],,preferred GC-rich sequences,
